Like-named read-outs stand apart in the source and are kept apart here.
Key:
Type in all cases: cell-based
CCRF-CEM = assay: NCI60 five-dose screen, Leukemia; details: Homo sapiens, Leukemia, five-dose screen, read-out: GI50
MOLT-4 = assay: NCI60 five-dose screen, Leukemia; details: Homo sapiens; MOLT-4, Leukemia; five-dose screen; read-out: GI50
RPMI-8226 = assay: NCI60 five-dose screen, Leukemia; details: Homo sapiens; RPMI-8226, Leukemia; five-dose screen; read-out: GI50
SR = assay: NCI60 five-dose screen, Leukemia; details: Homo sapiens, Leukemia, five-dose screen, read-out: GI50
A549/ATCC = assay: NCI60 five-dose screen, Non-small Cell Lung Cancer; details: Homo sapiens; A549/ATCC, Non-small Cell Lung Cancer; five-dose screen; read-out: GI50
HOP-62 = assay: NCI60 five-dose screen, Non-small Cell Lung Cancer; details: Homo sapiens; HOP-62, Non-small Cell Lung Cancer; five-dose screen; read-out: GI50
NCI-H322M = assay: NCI60 five-dose screen, Non-small Cell Lung Cancer; details: Homo sapiens, Non-small Cell Lung Cancer, five-dose screen, read-out: GI50
COLO 205 = assay: NCI60 five-dose screen, Colon Cancer; details: Homo sapiens; COLO 205, Colon Cancer; five-dose screen; read-out: GI50
HCT-116 = assay: NCI60 five-dose screen, Colon Cancer; details: Homo sapiens; HCT-116, Colon Cancer; five-dose screen; read-out: GI50
KM12 = assay: NCI60 five-dose screen, Colon Cancer; details: Homo sapiens; KM12, Colon Cancer; five-dose screen; read-out: GI50
SW-620 = assay: NCI60 five-dose screen, Colon Cancer; details: Homo sapiens; SW-620, Colon Cancer; five-dose screen; read-out: GI50
SF-295 = assay: NCI60 five-dose screen, CNS Cancer; details: Homo sapiens; SF-295, CNS Cancer; five-dose screen; read-out: GI50
SF-539 = assay: NCI60 five-dose screen, CNS Cancer; details: Homo sapiens; SF-539, CNS Cancer; five-dose screen; read-out: GI50
SNB-19 = assay: NCI60 five-dose screen, CNS Cancer; details: Homo sapiens; SNB-19, CNS Cancer; five-dose screen; read-out: GI50
M14 = assay: NCI60 five-dose screen, Melanoma; details: Homo sapiens; M14, Melanoma; five-dose screen; read-out: GI50
SK-MEL-2 = assay: NCI60 five-dose screen, Melanoma; details: Homo sapiens; SK-MEL-2, Melanoma; five-dose screen; read-out: GI50
SK-MEL-28 = assay: NCI60 five-dose screen, Melanoma; details: Homo sapiens; SK-MEL-28, Melanoma; five-dose screen; read-out: GI50
UACC-62 = assay: NCI60 five-dose screen, Melanoma; details: Homo sapiens; UACC-62, Melanoma; five-dose screen; read-out: GI50
OVCAR-3 = assay: NCI60 five-dose screen, Ovarian Cancer; details: Homo sapiens; OVCAR-3, Ovarian Cancer; five-dose screen; read-out: GI50
OVCAR-5 = assay: NCI60 five-dose screen, Ovarian Cancer; details: Homo sapiens; OVCAR-5, Ovarian Cancer; five-dose screen; read-out: GI50
SK-OV-3 = assay: NCI60 five-dose screen, Ovarian Cancer; details: Homo sapiens; SK-OV-3, Ovarian Cancer; five-dose screen; read-out: GI50
786–0 = assay: NCI60 five-dose screen, Renal Cancer; details: Homo sapiens; 786–0, Renal Cancer; five-dose screen; read-out: GI50
A498 = assay: NCI60 five-dose screen, Renal Cancer; details: Homo sapiens; A498, Renal Cancer; five-dose screen; read-out: GI50
ACHN = assay: NCI60 five-dose screen, Renal Cancer; details: Homo sapiens, Renal Cancer, five-dose screen, read-out: GI50
RXF 393 = assay: NCI60 five-dose screen, Renal Cancer; details: Homo sapiens, RXF 393, Renal Cancer
SN12C = assay: NCI60 five-dose screen, Renal Cancer; details: Homo sapiens, Renal Cancer, five-dose screen, read-out: GI50
UO-31 = assay: NCI60 five-dose screen, Renal Cancer; details: Homo sapiens; UO-31, Renal Cancer; five-dose screen; read-out: GI50
PC-3 = assay: NCI60 five-dose screen, Prostate Cancer; details: Homo sapiens; PC-3, Prostate Cancer; five-dose screen; read-out: GI50
DU-145 = assay: NCI60 five-dose screen, Prostate Cancer; details: Homo sapiens; DU-145, Prostate Cancer; five-dose screen; read-out: GI50
MCF7 = assay: NCI60 five-dose screen, Breast Cancer; details: Homo sapiens; MCF7, Breast Cancer; five-dose screen; read-out: GI50
MDA-MB231ATCC = assay: NCI60 five-dose screen, Breast Cancer; details: Homo sapiens, MDA-MB-231; MDA-MB231ATCC, Breast Cancer; five-dose screen; read-out: GI50
HS 578T = assay: NCI60 five-dose screen, Breast Cancer; details: Homo sapiens; HS 578T, Breast Cancer; five-dose screen; read-out: GI50
BT-549 = assay: NCI60 five-dose screen, Breast Cancer; details: Homo sapiens; BT-549, Breast Cancer; five-dose screen; read-out: GI50
MDA-MB-468 = assay: NCI60 five-dose screen, Breast Cancer; details: Homo sapiens; MDA-MB-468, Breast Cancer; five-dose screen; read-out: GI50
[1] = system: 60 human tumor cell lines (NCI60); assay: NCI60 five-dose screen, whole panel and sub-panel means; details: Homo sapiens, read-out: GI50 Mean
[2] = 60 cell, mean over all 60 cell lines
[3] = mean over Non-small Cell Lung Cancer panel
[4] = mean over Prostate Cancer panel

`CCC12C=CCN3CCC4(c5cc(NC(=O)CN6CCN(c7ccc(C(F)(F)F)cc7)CC6)c(OC)cc5N(C)C4C(O)(C(=O)OC)C1OC(C)=O)C32` (stereo not shown) [Compound 17] was tested, and the GI50 (CCRF-CEM) was 3.24 µM, the GI50 (MOLT-4) was 2.09 µM and the GI50 (RPMI-8226) was 3.09 µM. The GI50 (SR) was 2.95 µM, the GI50 (A549/ATCC) was 4.07 µM and the GI50 (HOP-62) was 3.72 µM. It also gave a GI50 (NCI-H322M) of 15.1 µM, a GI50 (COLO 205) of 3.24 µM and a GI50 (HCT-116) of 3.72 µM. The GI50 (KM12) was 3.72 µM, the GI50 (SW-620) was 5.75 µM and the GI50 (SF-295) was 3.55 µM. The GI50 (SF-539) was 4.68 µM, the GI50 (SNB-19) was 5.37 µM and the GI50 (M14) was 3.63 µM. It also gave a GI50 (SK-MEL-2) of 4.37 µM, a GI50 (SK-MEL-28) of 5.89 µM and a GI50 (UACC-62) of 10.2 µM. It also gave a GI50 (OVCAR-3) of 2.88 µM, a GI50 (OVCAR-5) of 10.7 µM and a GI50 (SK-OV-3) of 3.31 µM. For the same compound, the GI50 (786–0) was 6.31 µM, the GI50 (A498) was 10.7 µM and the GI50 (ACHN) was 5.62 µM. It also gave a GI50 (RXF 393) of 5.37 µM, a GI50 (SN12C) of 7.76 µM and a GI50 (UO-31) of 5.13 µM. For the same compound, the GI50 (PC-3) was 3.31 µM, the GI50 (DU-145) was 6.46 µM and the GI50 (MCF7) was 3.72 µM. The GI50 (MDA-MB231ATCC) was 11.2 µM, the GI50 (HS 578T) was 14.8 µM and the GI50 (BT-549) was 2.34 µM. It also gave a GI50 (MDA-MB-468) of 2.4 µM, a GI50 [1, 2] of 5.53 µM and a GI50 ([1]; mean over Breast Cancer panel) of 6.11 µM. The GI50 ([1]; mean over CNS Cancer panel) was 4.01 µM, the GI50 ([1]; mean over Colon Cancer panel) was 4.31 µM and the GI50 ([1]; mean over Leukemia panel) was 2.75 µM. The GI50 ([1]; mean over Melanoma panel) was 5.89 µM, the GI50 [1, 3] was 7.29 µM and the GI50 ([1]; mean over Ovarian Cancer panel) was 6.48 µM. The GI50 [1, 4] was 4.88 µM and the GI50 ([1]; mean over Renal Cancer panel) was 6.01 µM.

`CC[C@]12C=CCN3CC[C@@]4(c5ccc(OC)cc5N(C)[C@H]4[C@@](O)(C(=O)OC)[C@@H]1OC(=O)CCCN1CCN(Cc4ccc(F)cc4)CC1)[C@@H]32` [Compound 24] showed a GI50 (CCRF-CEM) of 4.07 µM, a GI50 (MOLT-4) of 1.74 µM and a GI50 (RPMI-8226) of 4.17 µM. It also gave a GI50 (SR) of 3.47 µM, a GI50 (A549/ATCC) of 10.2 µM and a GI50 (HOP-62) of 10.2 µM. The GI50 (NCI-H322M) was 8.32 µM, the GI50 (COLO 205) was 1.95 µM and the GI50 (HCT-116) was 5.62 µM. The GI50 (KM12) was 10.5 µM, the GI50 (SW-620) was 13.5 µM and the GI50 (SF-295) was 12.6 µM. The GI50 (SF-539) was 10.5 µM, the GI50 (SNB-19) was 11.5 µM and the GI50 (M14) was 5.5 µM. It also gave a GI50 (SK-MEL-2) of 15.1 µM, a GI50 (SK-MEL-28) of 4.68 µM and a GI50 (UACC-62) of 11.5 µM. For the same compound, the GI50 (OVCAR-3) was 10.7 µM, the GI50 (OVCAR-5) was 13.8 µM and the GI50 (SK-OV-3) was 12 µM. For the same compound, the GI50 (786–0) was 6.31 µM, the GI50 (A498) was 12.9 µM and the GI50 (ACHN) was 5.89 µM. The GI50 (RXF 393) was 1 µM, the GI50 (SN12C) was 8.32 µM and the GI50 (UO-31) was 3.09 µM. It also gave a GI50 (PC-3) of 4.17 µM, a GI50 (DU-145) of 10.5 µM and a GI50 (MCF7) of 3.98 µM. The GI50 (MDA-MB231ATCC) was 2.82 µM, the GI50 (HS 578T) was 4.07 µM and the GI50 (BT-549) was 7.24 µM. For the same compound, the GI50 (MDA-MB-468) was 1.74 µM, the GI50 [1, 2] was 6.84 µM and the GI50 ([1]; mean over Breast Cancer panel) was 4.25 µM. It also gave a GI50 ([1]; mean over CNS Cancer panel) of 8.08 µM, a GI50 ([1]; mean over Colon Cancer panel) of 6.09 µM and a GI50 ([1]; mean over Leukemia panel) of 3.19 µM. It also gave a GI50 ([1]; mean over Melanoma panel) of 5.92 µM, a GI50 [1, 3] of 9.83 µM and a GI50 ([1]; mean over Ovarian Cancer panel) of 10.1 µM. For the same compound, the GI50 [1, 4] was 7.32 µM and the GI50 ([1]; mean over Renal Cancer panel) was 5.58 µM.

Source: publication PMC11277489, “Novel Piperazine Derivatives of Vindoline as Anticancer Agents” (International Journal of Molecular Sciences, 2024)
